Measurements reported in BigSolDB 2.1.

C[C@@H]1O[C@@H](OC[C@H]2O[C@@H](Oc3c(-c4ccc(OCCO)c(OCCO)c4)oc4cc(OCCO)cc(O)c4c3=O)[C@H](O)[C@@H](O)[C@@H]2O)[C@H](O)[C@H](O)[C@H]1O
solubility (mole fraction)
Details	288.15 K	293.15 K	298.15 K	303.15 K	308.15 K	313.15 K	318.15 K	323.15 K
in 1,4-dioxane	0.000517	0.000596	0.000724	0.000865	0.00103	0.00121	0.00144	0.00171
in acetone	3.1e-05	3.4e-05	4.2e-05	5.5e-05	7e-05	9.1e-05	0.000124	0.000162
in acetonitrile	8e-06	1.2e-05	1.5e-05	2.1e-05	2.8e-05	3.8e-05	4.9e-05	7e-05
in ethanol	0.000228	0.000252	0.00029	0.000346	0.000407	0.000468	0.000547	0.000632
in isobutanol	4.1e-05	5.4e-05	7e-05	9e-05	0.000125	0.000176	0.000238	0.000312
in isopropanol	9.3e-05	0.000119	0.000161	0.000207	0.000268	0.000329	0.000403	0.000519
in methanol	0.000245	0.000291	0.000362	0.00045	0.000573	0.000714	0.000876	0.00107
in n-butanol	8e-05	0.000102	0.000142	0.000187	0.000248	0.000312	0.000382	0.000494
in n-pentanol	7.1e-05	9e-05	0.000107	0.000132	0.00017	0.000222	0.000289	0.000377
in n-propanol	0.000144	0.000177	0.000215	0.000258	0.000317	0.000377	0.000458	0.000562
in sec-butanol	8.6e-05	0.000108	0.00015	0.000194	0.000254	0.000319	0.000391	0.000505
